The results in this text go back to ChEMBL document CHEMBL1914290, “3,4-Disubstituted oxazolidin-2-ones as constrained ceramide analogs with anticancer activities” (Bioorg Med Chem, 2011).

Assay [1] has as its system HL-60. Put plainly: Antileukemic activity against human HL60 cells at 20 uM after 16 hrs by MTT assay. The class given is functional, cell-based. (In general: Formazan colour is commonly taken as a measure of viable cells.)
Assay [2] deals with HL-60. Put plainly: Induction of apoptosis in human HL60 cells assessed as DNA fragmentation at 20 uM after 15 hrs. It counts as functional, cell-based.

Calls of active or inactive are those of the source. No cut-off for these calls is given here.

As to `CCCCCCCCCCCCC/C=C/[C@@H](O)[C@@H]1COC(=O)N1C(=O)CCCCCCCCCCCCCCC`, in assay [1], the result was inactive. Moreover, the outcome in assay [2] was Active.
As to `CCCCCCCC/C=C/[C@@H](O)[C@@H]1COC(=O)N1C(=O)C1CCCC1`, in assay [1], the result was inactive.
With `CCCCCCCCCCCCC/C=C/[C@@H](O)[C@@H]1COC(=O)N1C(C)=O`, the result in assay [1] and in assay [2] was Active.
On to `CCCCCCCCCCCCC/C=C/[C@@H](O)[C@@H]1COC(=O)N1C(=O)C1CCCC1`, for which the result in assay [1] and in assay [2] was Active.
In the case of `CCCCCCCCCCCCC/C=C/[C@@H](O)[C@@H]1COC(=O)N1C(=O)c1ccccc1OC`, in assay [1], the result was Active.
With `CCCCCCCCCCCCC/C=C/[C@@H](O)[C@@H]1COC(=O)N1C(=O)C(C)C`, the outcome in assay [1] and in assay [2] was Active.
On to `CCCCCCCCCCCCC/C=C/[C@@H](O)[C@@H]1COC(=O)N1C(=O)c1ccco1`, for which the result in assay [1] was Active.
The same measure, in the same setting: under `O=C1OC[C@@H]([C@H](O)/C=C/C2CCCC2)N1C(=O)C1CCCC1` stands “inactive”.
`CCCCCCCCCCCCC/C=C/[C@@H](O)[C@@H]1COC(=O)N1C(=O)c1ccccc1`: the outcome in assay [1] and in assay [2] was Active.
With `CCCCCCCCCCCCC/C=C/[C@@H](O)[C@@H]1COC(=O)N1C(=O)C/C=C/c1ccccc1`, the outcome in assay [1] was inactive.
`CCCCCCCCCCCCC/C=C/[C@@H](O)[C@@H]1COC(=O)N1C(=O)c1ccc([N+](=O)[O-])cc1`: the result in assay [1] and in assay [2] was Active.
Consider `CCCC/C=C/[C@@H](O)[C@@H]1COC(=O)N1C(=O)C1CCCC1`, for which, in assay [1], the outcome was inactive.
Still for that read-out and setting: then `O=C1OC[C@@H]([C@H](O)/C=C/Cc2ccccc2)N1C(=O)C1CCCC1`, with “inactive”; and `CCCCCCCCCCCCC/C=C/[C@@H](O)[C@@H]1COC(=O)N1C(=O)Cc1ccccc1`, with “inactive”.
As to `CCCCCCCCCCCCC/C=C/[C@@H](O)[C@@H]1COC(=O)N1C(=O)CC`, the outcome in assay [1] and in assay [2] was Active.
For `CCCCCCCCCCCCC/C=C/[C@@H](O)[C@@H]1COC(=O)N1C(=O)C(C)(C)C`, the outcome in assay [1] was Active.
With `CCCCCCCCCCCCC/C=C/[C@@H](O)[C@@H]1COC(=O)N1C(=O)c1cccc2ccccc12`, in assay [1], the outcome was Active.
Same read-out and setting: under `CCCCCCCCCC/C=C/[C@@H](O)[C@@H]1COC(=O)N1C(=O)C1CCCC1` stands “Active”; under `CCCCCC/C=C/[C@@H](O)[C@@H]1COC(=O)N1C(=O)C1CCCC1`, “inactive”.
Same read-out and setting: under `O=C1OC[C@@H]([C@H](O)/C=C/C2CCCCC2)N1C(=O)C1CCCC1` stands “inactive”.
